Test results: article PMC8373983, “Effect of salinity on the zinc(II) binding efficiency of siderophore functional groups and implications for salinity tolerance mechanisms in barley” (Scientific Reports, 2021)
Where two headings read alike, the source gives them in different places.

What was measured:
[1] = Zinc(II) hydrolysis constants, potentiometric titration in NaCl; assay type: physicochemical; conditions: T = 298.1 K
Description: A 30 ml solution containing each ligand ([L] = 5 – 10 mM), NaCl and HCl was titrated with standard NaOH solutions. For the zinc(II)/ligand systems, the titrant solutions consisted of different amounts of ligand ([L] = 5 − 10 mM), zinc(II) ([Zn] = 0.5—5 mM) and a suitable amount of HCl and NaCl. All the measurements were carried out with an excess of the ligand, with respect to zinc(II) and at different zinc(II):ligand molar ratios. The selection of ratios investigated was determined by simulating titrations using Hyperquad Simulation and Speciation computer software (HySS)[41]. [Zn] and [L] were negligible compared to the background electrolyte concentrations. […] To account for the influence of zinc(II) hydrolysis in the zinc(II)/ligand systems, zinc(II) titrations were carried out separately at each ionic strength to determine the hydroxide constants so that these constants could be included in the equilibrium model used to refine the titration data. In these titrations, the zinc(II) concentration in the analyte solution was 0.7 mM.
The software program Hyperquad was used to determine the equilibrium model and to calculate pKa and stability constants from the potentiometric data set[43]. For each set of pKa constants or zinc(II):ligand ratio studied, at least two repeat titrations were performed. The titration curves for each system were treated as a single set when refining the stability constants. This meant that the refinement procedure was run on both curves at the same time to derive a single set of constants. The error reported on the stability constants is the standard deviation given in the Hyperquad output file. Examples of Hyperquad files for the zinc(II)/PYR system are provided on the Zenodo repository (https://doi.org/10.5281/zenodo.4641710).

barley plants = conditions: cited from earlier work
[2] = system: wild and cultivated barley plants; conditions: 0.20 M NaCl; hydroponic, no initial micronutrient deficiencies; cited from earlier work

[Cl-].[Cl-].[Zn+2] [Zinc(II), ZnCl2]
log β, Zn2+ + 2OH- = [Zn(OH)2] ([1]; 0.05 M NaCl): 15.40±0.06
log β, Zn2+ + 3OH- = [Zn(OH)3]- ([1]; 0.05 M NaCl): 25.16±0.09
log β, Zn2+ + 2OH- = [Zn(OH)2] ([1]; 0.15 M NaCl): 15.76±0.01
log β, Zn2+ + 3OH- = [Zn(OH)3]- ([1]; 0.15 M NaCl): 26.15±0.04
log β, Zn2+ + 2OH- = [Zn(OH)2] ([1]; 0.30 M NaCl): 15.77±0.01
log β, Zn2+ + 3OH- = [Zn(OH)3]- ([1]; 0.30 M NaCl): 26.10±0.03
log β, Zn2+ + 2OH- = [Zn(OH)2] ([1]; 0.70 M NaCl): 15.93±0.01
log β, Zn2+ + 3OH- = [Zn(OH)3]- ([1]; 0.70 M NaCl): 26.51±0.04
log β, Zn2+ + 2OH- = [Zn(OH)2] ([1]; 1.00 M NaCl): 16.05±0.01
log β, Zn2+ + 3OH- = [Zn(OH)3]- ([1]; 1.00 M NaCl): 26.56±0.03

[Cl-].[Na+] [NaCl]
Zinc(II) content ratio (barley plants; Leaves, Iranis, 0.08 M NaCl, pH 7.5, soil, 350 μmol/mol CO2): 0.88
Zinc(II) content ratio (barley plants; Leaves, Iranis, 0.08 M NaCl, pH 7.5, soil, 700 μmol/mol CO2): 1.25
Zinc(II) content ratio (barley plants; Leaves, Iranis, 0.16 M NaCl, pH 7.5, soil, 350 μmol/mol CO2): 0.94
Zinc(II) content ratio (barley plants; Leaves, Iranis, 0.16 M NaCl, pH 7.5, soil, 700 μmol/mol CO2): 1.19
Zinc(II) content ratio (barley plants; Leaves, Iranis, 0.24 M NaCl, pH 7.5, soil, 350 μmol/mol CO2): 1.35
Zinc(II) content ratio (barley plants; Leaves, Iranis, 0.24 M NaCl, pH 7.5, soil, 700 μmol/mol CO2): 1.31
Zinc(II) content ratio (barley plants; Roots, CM72, 0.15 M NaCl, pH 6.5, soil, Cr 0 μM): 0.68
Zinc(II) content ratio (barley plants; Roots, CM72, 0.15 M NaCl, pH 6.5, soil, Cr 10 μM): 0.66
Zinc(II) content ratio (barley plants; Roots, CM72, 0.15 M NaCl, pH 6.5, soil, Cr 50 μM): 0.82
Zinc(II) content ratio (barley plants; Roots, Gairdner, 0.15 M NaCl, pH 6.5, soil, Cr 0 μM): 0.51
Zinc(II) content ratio (barley plants; Roots, Gairdner, 0.15 M NaCl, pH 6.5, soil, Cr 10 μM): 0.56
Zinc(II) content ratio (barley plants; Roots, Gairdner, 0.15 M NaCl, pH 6.5, soil, Cr 50 μM): 0.59
Zinc(II) content ratio (barley plants; Roots, Iranis, 0.08 M NaCl, pH 7.5, soil, 350 μmol/mol CO2): 1.08
Zinc(II) content ratio (barley plants; Roots, Iranis, 0.08 M NaCl, pH 7.5, soil, 700 μmol/mol CO2): 1.11
Zinc(II) content ratio (barley plants; Roots, Iranis, 0.16 M NaCl, pH 7.5, soil, 350 μmol/mol CO2): 0.90
Zinc(II) content ratio (barley plants; Roots, Iranis, 0.16 M NaCl, pH 7.5, soil, 700 μmol/mol CO2): 1.00
Zinc(II) content ratio (barley plants; Roots, Iranis, 0.24 M NaCl, pH 7.5, soil, 350 μmol/mol CO2): 0.97
Zinc(II) content ratio (barley plants; Roots, Iranis, 0.24 M NaCl, pH 7.5, soil, 700 μmol/mol CO2): 0.96
Zinc(II) content ratio (barley plants; Shoots, CM72, 0.15 M NaCl, pH 6.5, soil, Cr 0 μM): 0.79
Zinc(II) content ratio (barley plants; Shoots, CM72, 0.15 M NaCl, pH 6.5, soil, Cr 10 μM): 0.82
Zinc(II) content ratio (barley plants; Shoots, CM72, 0.15 M NaCl, pH 6.5, soil, Cr 50 μM): 0.98
Zinc(II) content ratio (barley plants; Shoots, Gairdner, 0.15 M NaCl, pH 6.5, soil, Cr 0 μM): 0.67
Zinc(II) content ratio (barley plants; Shoots, Gairdner, 0.15 M NaCl, pH 6.5, soil, Cr 10 μM): 0.72
Zinc(II) content ratio (barley plants; Shoots, Gairdner, 0.15 M NaCl, pH 6.5, soil, Cr 50 μM): 0.97
Zinc(II) content ratio (barley plants; Stems, Iranis, 0.08 M NaCl, pH 7.5, soil, 350 μmol/mol CO2): 1.25
Zinc(II) content ratio (barley plants; Stems, Iranis, 0.08 M NaCl, pH 7.5, soil, 700 μmol/mol CO2): 0.95
Zinc(II) content ratio (barley plants; Stems, Iranis, 0.16 M NaCl, pH 7.5, soil, 350 μmol/mol CO2): 0.81
Zinc(II) content ratio (barley plants; Stems, Iranis, 0.16 M NaCl, pH 7.5, soil, 700 μmol/mol CO2): 0.95
Zinc(II) content ratio (barley plants; Stems, Iranis, 0.24 M NaCl, pH 7.5, soil, 350 μmol/mol CO2): 1.19
Zinc(II) content ratio (barley plants; Stems, Iranis, 0.24 M NaCl, pH 7.5, soil, 700 μmol/mol CO2): 1.16
Zinc(II) content ratio (barley plants; Whole-plant, Bajwar-200, 0.04 M NaCl, pH 5.6, hydroponic): 0.99
Zinc(II) content ratio (barley plants; Whole-plant, Bajwar-200, 0.08 M NaCl, pH 5.6, hydroponic): 1.03
Zinc(II) content ratio (barley plants; Whole-plant, Bajwar-200, 0.12 M NaCl, pH 5.6, hydroponic): 1.18
Zinc(II) content ratio (barley plants; Whole-plant, TARM-92, 0.09 M NaCl, pH 8.1, soil, seeds soaked in 0.5 mM Kinetin): 1.12
Zinc(II) content ratio (barley plants; Whole-plant, TARM-92, 0.09 M NaCl, pH 8.1, soil, seeds soaked in 2.0 mM GA3): 2.00
Zinc(II) content ratio (barley plants; Whole-plant, TARM-92, 0.09 M NaCl, pH 8.1, soil, seeds soaked in H2O): 1.07
Zinc(II) content ratio (barley plants; Whole-plant, TARM-92, 0.16 M NaCl, pH 8.1, soil, seeds soaked in 0.5 mM Kinetin): 1.13
Zinc(II) content ratio (barley plants; Whole-plant, TARM-92, 0.16 M NaCl, pH 8.1, soil, seeds soaked in 2.0 mM GA3): 1.06
Zinc(II) content ratio (barley plants; Whole-plant, TARM-92, 0.16 M NaCl, pH 8.1, soil, seeds soaked in H2O): 1.09
Zinc(II) content ratio (barley plants; Whole-plant, TARM-92, 0.24 M NaCl, pH 8.1, soil, seeds soaked in 0.5 mM Kinetin): 1.05
Zinc(II) content ratio (barley plants; Whole-plant, TARM-92, 0.24 M NaCl, pH 8.1, soil, seeds soaked in 2.0 mM GA3): 0.88
Zinc(II) content ratio (barley plants; Whole-plant, TARM-92, 0.24 M NaCl, pH 8.1, soil, seeds soaked in H2O): 1.17
increase in phytosiderophore release [2]: 2.5–3 times
